Series [1] has as its system B19V. Also noted: method as in earlier work. The note with it: UT7/EpoS1 cells, IVM at 10 μM; cited from earlier work.
Series [2] concerns B19V. The series is described as follows: Antiviral assay: B19V DNA replication by qPCR in UT7/EpoS1 cells. The series is classed as cell-based, Human parvovirus B19. The note with it: for EC50: B19V DNA 48 hpi vs 2 hpi, table: mean (95% CI); for inhibition of viral replication: compounds at 10 μM, 48 hpi vs 2 hpi.
In a further series the test system is UT7/EpoS1 cells. Nature of the series: Cell cytotoxicity assay (alamarBlue HS) in UT7/EpoS1 cells. In kind it is cell-based. The note with it: for CC50: 6 h + 48 h with compound, alamarBlue, table: mean (95% CI). On the technique in general: Alamar Blue is a resazurin reagent that responds to reducing activity.
Series [3] deals with T1, mIMPα2ΔIBB:NS1 NLS interaction (Mus musculus, UniProt P52293).
T1 construct: made in house; host or cells: bacteria
Nature of the series: AlphaScreen inhibition assay of the IMPα:NS1-NLS interaction. The series is classed as binding. For orientation: Alpha assays give light when donor and acceptor beads are brought close together.

Another series deals with EPCs. Nature of the series: Cell cytotoxicity assay (WST-8, CCK-8) in EPCs. In kind it is cell-based, human. Particulars: for CC50: WST-8 based assay, TLTM: too low to measure; for cell toxicity: every concentration tested. Background: Formazan colour is commonly taken as a measure of viable cells.
The subject of series [4] is B19V. Nature of the series: Antiviral assay: B19V DNA replication by qPCR in EPCs. Particulars: B19V DNA 48 hpi vs 2 hpi, table: mean (95% CI). In kind it is cell-based, Human parvovirus B19.
[5] abbreviates: titration 0-5 μM, average ± SD, 4 independent experiments, read-out: IC50.

Entries after “also recorded” stand apart in the source; their conditions may differ. Where two headings read alike, the source gives them in different places.

Results on eight compounds are retold here after article PMC11860776 (Viruses, 2025).

As a reminder, the EC50 is the midpoint of the concentration-response curve. Low readings indicate greater potency, high ones weaker potency. By CC50 is commonly meant the concentration at which the toxic effect on the cells reaches its halfway point. As a reminder, the IC50 is the concentration that inhibits the measured activity by half.

As for `CC[C@H](C)[C@H]1O[C@]2(CC[C@@H]1C)C[C@@H]1C[C@@H](C/C=C(\C)[C@@H](O[C@H]3C[C@H](OC)[C@@H](O[C@H]4C[C@H](OC)[C@@H](O)[C@H](C)O4)[C@H](C)O3)[C@@H](C)/C=C/C=C3\CO[C@@H]4[C@H](O)C(C)=C[C@@H](C(=O)O1)[C@]34O)O2` [IVM, Ivermectin], in the series on B19V [1], the “inhibition of B19V viral replication” value is reported as “could inhibit B19V viral replication”. Moreover, in the series on B19V [2], the “concentration from which strong inhibition of B19V DNA replication starts” value is at least 6 µM, the EC50 was 7.6 µM and the “inhibition of viral replication” value is on record as “inhibited viral replication”. Moreover, in the series on UT7/EpoS1 cells, the “concentrations causing significative toxicity” value is “above 12.5 μM” and the cytotoxic concentration (CC50) was found to be 14.5 µM. Also, the “AlphaScreen counts (mIMPα2ΔIBB:NS1 NLS interaction)” value in series [3] (IVM 10 μM (text; figure legend says 2.5 μM) vs absence) was “significant reduction”. Moreover, the half-maximal inhibitory concentration (IC50) in series [3] (setting [5]) is 0.0118 ± 0.004 µM. In the series on EPCs, the CC50 entry is “TLTM” and the cell toxicity result is reported as “extremely toxic at every concentration tested”. For the same compound, in the series with B19V [4], the concentration for a half-maximal effect (EC50) was 3.3 µM.
Consider `CC(Nc1nc(N2CCCC2)nc2ccccc12)c1ccccc1` (stereo not shown) [Importazole], for which, in the series on B19V [2], it took 13.4 µM to reach a half-maximal effect (EC50) and the “inhibition of viral replication” value was “inhibited viral replication; also recorded: inhibited viral replication more than IVM”. Moreover, the half-maximal cytotoxic concentration (CC50) in the series on UT7/EpoS1 cells is 30 µM.
As to `CO/N=C1\C[C@]2(C[C@@H]3C[C@@H](C/C=C(\C)C[C@@H](C)/C=C/C=C4\CO[C@@H]5[C@H](O)C(C)=C[C@@H](C(=O)O3)[C@]45O)O2)O[C@H](/C(C)=C/C(C)C)[C@H]1C` [Moxidectin], the IC50 in series [3] (setting [5]) was determined as 0.0157 ± 0.0012 µM.
Consider `CO[C@H]1C[C@H](O[C@@H]2/C(C)=C/C[C@@H]3C[C@@H](C[C@]4(CC[C@H](C)[C@@H](C5CCCCC5)O4)O3)OC(=O)[C@@H]3C=C(C)/C(=N/O)[C@H]4OC/C(=C\C=C\[C@@H]2C)[C@]43O)O[C@@H](C)[C@@H]1O` [Selamectin], for which the IC50 in series [3] came to 0.0508 ± 0.0029 µM.
Take Avermectin B1: in the series with B19V [2], the EC50 was 9.8 µM and the “inhibition of viral replication” value is recorded as “inhibited viral replication more than IVM”. Besides, the IC50 in series [3] (setting [5]) was 0.0361 ± 0.0177 µM.
Emamectin benzoate [Emamectin benozate]: the IC50 in series [3] (setting [5]) came to 0.0099 ± 0.003 µM.
Eprinomectin: in the series with B19V [2], the 50% effective concentration (EC50) is 3.2 µM and the “inhibition of viral replication” value is listed as “inhibited viral replication more than IVM”. The half-maximal cytotoxic concentration (CC50) with UT7/EpoS1 cells came out at 15.9 µM. Moreover, the IC50 in series [3] (setting [5]) was 0.0409 ± 0.0099 µM. Further, in the series with EPCs, the CC50 result is recorded as “TLTM” and the cell toxicity result is listed as “extremely toxic at every concentration tested”. For the same compound, the midpoint of the response with B19V [4], the EC50, lay at 6.5 µM.
With Milbemycin oxime, the IC50 in series [3] (setting [5]) came out at 0.0269 ± 0.0159 µM.
